Measured values as given in patent US20210244735A1, “COMPOSITIONS AND METHODS FOR TREATING MYELOFIBROSIS” (Impact Biomedicines, Inc., priority 2010, published 2021).
Entries after “also recorded” stand apart in the source; their conditions may differ. Where a name gives a salt, the structure may show the parent alone.

Columns and labels:
Type in all cases: in vivo, human
JAK2V617F allele burden = assay: Phase 1 study: JAK2V617F allele burden in granulocyte fraction of peripheral blood
Description: (§1) Responses were measured every 4 weeks per International Working Group for MPN Research and Treatment (IWG-MRT) criteria (Tefferi A et al., Blood 108:1497-1503, 2006). Assessment of bone marrow histology was performed at baseline and every 24 weeks of therapy. Changes in JAK2V 617F allele burden in the granulocyte fraction of peripheral blood were measured as previously described (Kittur J et al., Cancer 109:2279-2284, 2007); the assessments were at baseline and every 4 weeks during the first 6 cycles, and every 6th cycle of therapy in the extension study.

[1] = Phase 1 study: plasma pharmacokinetics, non-compartmental analysis
Description: Pharmacokinetics: The concentration—time curves of TG101348 in plasma were evaluated by a non-compartmental analysis (with the use of WinNonlin® software, version 5.2).

subjects with MF = assay: Phase 1 dose-escalation study MF-TG101348-001 (and extension MF-TG101348-002): clinical response (spleen, leukocytosis, thrombocytosis, constitutional symptoms, bone marrow); details: for subjects achieving a normal WBC count: following 6 cycles; for subjects achieving a normal platelet count: after 6 cycles; for subjects with minimum 25% decrease in palpable spleen size: intent-to-treat
Description: The key eligibility criteria for subjects included: Myelofibrosis (PMF or post-PV/ET MF); High-risk or intermediate-risk with symptomatic splenomegaly/unresponsive to available therapy; ECOG performance status ≤2; ANC≥1×10^9/L; Platelet count≥50×10^9/L; Serum creatinine ≤2 mg/dL; Total bilirubin ≤2 mg/dL; AST/ALT≤3X upper limit of normal.
All patients provided written informed consent.
as §1

[2] = mean, 240 mg/day (n=3), Cycle 1 Day 28
[3] = mean, 360 mg/day (n=3), Cycle 1 Day 28
[4] = mean, 800 mg/day (n=5), Cycle 1 Day 28
[5] = MTD cohort, after 1 cycle (n=12)
[6] = MTD cohort, after 1 cycle, 8 subjects at baseline
[7] = MTD cohort, after 6 cycles (n=16)
[8] = at 3 months, 33 patients who started at >680 mg and completed at least 3 cycles

**Q.** Which “patients with ≥50% reduction in VF allele burden” value (JAK2V617F allele burden; 48 evaluable VF-positive patients, last available follow-up) does the source give for Cc1cnc(Nc2ccc(OCCN3CCCC3)cc2)nc1Nc1cccc(S(=O)(=O)NC(C)(C)C)c1 [TG101348, N-tert-butyl-3-[(5-methyl-2-{[4-(2-pyrrolidin-1-ylethoxy)phenyl]amino}pyrimidin-4-yl)amino]benzenesulfonamide dihydrochloride monohydrate] here?
**A.** Its value is 21 (44%) patients (%).

**Q.** And the “subjects with ≥50% decrease in JAK2V617F” value (JAK2V617F allele burden; baseline >20%, 18 subjects who completed 12 cycles)?
**A.** The value was 7 (39%) subjects (%).

**Q.** What about the “JAK2V617F allele burden compared to pre-study baseline” value (JAK2V617F allele burden; end of cycle 6 and cycle 12, Wilcoxon matched-pair signed-rank test) of the same compound?
**A.** Its value is “significant decrease”.

**Q.** And the “plasma concentration over at least 24 hours after the dose” value ([1]; 360 mg/day, Cycle 1 Day 28)?
**A.** Its value is “above IC90”.

**Q.** What about the “plasma concentration over at least 24 hours after the dose” value ([1]; 520 mg/day, Cycle 1 Day 28) of the same compound?
**A.** Its value is “above 3×IC90”.

**Q.** What about the “increase of mean steady-state AUC0-t over a 27-fold increase in dose” value ([1]; in vivo) of the same compound?
**A.** The value was about 88 fold.

**Q.** And the “increase of mean steady-state C. over a 27-fold increase in dose” value ([1]; in vivo)?
**A.** Its value is “approximately 54 fold”.

**Q.** What about the “λz (elimination rate constant)” value ([1]; mean, 30 mg/day (n=3), Cycle 1 Day 28) of the same compound?
**A.** The value was 0.0354 h⁻¹.

**Q.** What about the “λz (elimination rate constant)” value ([1]; mean, 60 mg/day (n=3), Cycle 1 Day 28) of the same compound?
**A.** Its value is 0.0456 h⁻¹.

**Q.** What about the “λz (elimination rate constant)” value ([1]; mean, 120 mg/day (n=3), Cycle 1 Day 28) of the same compound?
**A.** Its value is 0.0305 h⁻¹.

**Q.** And the “T1/2 (terminal half-life)” value [1, 2]?
**A.** Its value is 20.77 h.

**Q.** And the “λz (elimination rate constant)” value [1, 2]?
**A.** The value was 0.0352 h⁻¹.

**Q.** And the Cmax [1, 3]?
**A.** Its Cmax is 1717.33 ng/mL.

**Q.** And the “T1/2 (terminal half-life)” value [1, 3]?
**A.** Its value is 21.39 h.

**Q.** What about the “λz (elimination rate constant)” value [1, 3] of the same compound?
**A.** The value was 0.0353 h⁻¹.

**Q.** What about the “λz (elimination rate constant)” value ([1]; mean, 520 mg/day (n=3), Cycle 1 Day 28) of the same compound?
**A.** The value was 0.0343 h⁻¹.

**Q.** What about the “λz (elimination rate constant)” value ([1]; mean, 680 mg/day (n=27), Cycle 1 Day 28) of the same compound?
**A.** The value was 0.0301 h⁻¹.

**Q.** What about the “T1/2 (terminal half-life)” value [1, 4] of the same compound?
**A.** Its value is 23.99 h.

**Q.** What about the “λz (elimination rate constant)” value [1, 4] of the same compound?
**A.** The value was 0.0331 h⁻¹.

**Q.** And the “normal WBC count at last follow-up visit” value (subjects with MF; 21 patients with leukocytosis at baseline who started at ≥680 mg)?
**A.** Its value is 70%.

**Q.** What about the “complete response in splenomegaly” value (subjects with MF; Example 2 conclusions) of the same compound?
**A.** Its value is about 30%.

**Q.** What about the “proportion achieving ≥50% reduction in palpable splenomegaly” value (subjects with MF; Example 2 conclusions) of the same compound?
**A.** The value was “two-thirds”.

**Q.** And the “subjects achieving CI” value (subjects with MF; JAK2V617F-negative MF, 4 subjects who completed 6 cycles)?
**A.** Its value is 75%.

**Q.** What about the “night sweats: complete resolution” value (subjects with MF; MTD cohort, after 1 cycle) of the same compound?
**A.** The value was 64 % of subjects.

**Q.** And the “cough: complete resolution” value (subjects with MF; [5])?
**A.** The value was 67%.

**Q.** What about the “cough: improvement” value (subjects with MF; [5]) of the same compound?
**A.** The value was 75%.

**Q.** And the “pruritus: complete resolution” value (subjects with MF; [6])?
**A.** The value was 50%.

**Q.** What about the “pruritus: improvement” value (subjects with MF; [6]) of the same compound?
**A.** Its value is 75%.

**Q.** And the “early satiety: complete resolution” value (subjects with MF; MTD cohort, after 2 cycles (n=27))?
**A.** Its value is 56%.

**Q.** What about the “night sweats: complete resolution” value (subjects with MF; MTD cohort, after 6 cycles (n=9)) of the same compound?
**A.** The value was 89%.

**Q.** And the “fatigue: complete resolution” value (subjects with MF; [7])?
**A.** The value was 25%.

**Q.** And the “fatigue: improvement” value (subjects with MF; [7])?
**A.** Its value is 63%.

**Q.** What about the “subjects with disease progression” value (subjects with MF; all subjects) of the same compound?
**A.** The value was “Three”.

**Q.** What about the “reduction in palpable spleen size at least 50%” value (subjects with MF; [8]) of the same compound?
**A.** Its value is 22 (67%) patients (%).

**Q.** And the spleen became non-palpable (subjects with MF; [8])?
**A.** The spleen became non-palpable was 9 (27%) patients (%).

**Q.** And the “normal WBC counts at follow-up visit” value (subjects with MF; baseline WBC count >11×10^9/L, follow-up doses 360 to 680 mg/day)?
**A.** Its value is 73 % of subjects.

**Q.** What about the “subjects achieving a normal WBC count” value (subjects with MF; baseline leukocytosis (WBC >11×10^9/L), across doses (16 of 28)) of the same compound?
**A.** The value was 57%.

**Q.** And the “subjects achieving a normal WBC count” value (subjects with MF; baseline leukocytosis, MTD cohort (13 of 18))?
**A.** Its value is 72%.

**Q.** What about the effect on thrombocytosis (subjects with MF; baseline platelet count >450×10^9/L) of the same compound?
**A.** Its effect on thrombocytosis is “able to reduce platelet counts”.

**Q.** What about the “subjects achieving a normal platelet count” value (subjects with MF; baseline thrombocytosis (platelet count >450×10^9/L), across doses (10 subjects)) of the same compound?
**A.** Its value is 90%.

**Q.** What about the “subjects achieving a normal platelet count” value (subjects with MF; baseline thrombocytosis, MTD cohort (7 subjects)) of the same compound?
**A.** Its value is 100%.

**Q.** What about the “≥50% decrease in palpable spleen size persistent for at least 8 weeks (Clinical Improvement per IWG-MRT)” value (subjects with MF; by cycle 6, MTD cohort) of the same compound?
**A.** The value was 45 % of subjects.

**Q.** And the “subjects with minimum 25% decrease in palpable spleen size” value (subjects with MF; by cycle 6, MTD cohort)?
**A.** The value was 65%.

**Q.** And the “≥50% decrease in palpable spleen size persistent for at least 8 weeks (Clinical Improvement per IWG-MRT)” value (subjects with MF; by cycle 6, overall)?
**A.** The value was 39 % of subjects.

**Q.** What about the “subjects with minimum 25% decrease in palpable spleen size” value (subjects with MF; by cycle 6, overall) of the same compound?
**A.** The value was 61%.

**Q.** What about the “spleen responses (CI)” value (subjects with MF; by cycle 12, MTD cohort) of the same compound?
**A.** Its value is 50 % of subjects.

**Q.** What about the “spleen responses (CI)” value (subjects with MF; by cycle 12, overall) of the same compound?
**A.** The value was 48 % of subjects.

**Q.** And the “effect on constitutional symptoms (early satiety, fatigue, cough, pruritus, night sweats)” value (subjects with MF; evaluable subjects, baseline versus last visit, dihydrochloride monohydrate)?
**A.** Its value is “clinically significant benefit or resolution; also recorded: able to improve; also recorded: remarkable activity”.

**Q.** What about the pruritus (subjects with MF; one subject with JAK2V617F-positive PMF, started at 680 mg/day) of the same compound?
**A.** The pruritus was “complete resolution”.

**Q.** And the “bone marrow fibrosis after 18 cycles” value (subjects with MF; person, V617F negative PMF, baseline 3+, starting dose 240 mg/day, follow-up 440 mg/day)?
**A.** Its value is 0.

**Q.** What about the “bone marrow cellularity after 18 cycles” value (subjects with MF; person, V617F negative PMF, baseline 60%, starting dose 30 mg/day, follow-up 520 mg/day) of the same compound?
**A.** Its value is 5-10%.
